Counter-ions that a name gives are not always drawn.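 48-hour exposure; five concentrations; linearly interpolated endpoints. The concentration for 50% growth inhibition is given as GI50.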 Active and inactive are the calls of the source. Cut-off read from the data, not from the text of the source: active = GI50 up to about 1.1 µM and inactive = higher. Non-standard residues stand in square brackets, D forms with d. Residues, ends and D or L forms follow the SMILES beside them. ξ: configuration not given here. *: point of attachment. ξNMeF = CNC(Cc1ccccc1)C(=O)O; NMeV = CN[C@H](C(=O)O)C(C)C; Boc = CC(C)(C)OC(=O)*; OBn = c1ccc(CO*)cc1
Legend:
Assay in all cases: NCI-60 cell line screen, 48 h
Hs-578T = system: Hs-578T
DLD-1 = system: DLD-1
HOP-18 = system: HOP-18
KM-20L2 = system: KM-20L2
LXFL 529 = system: LXFL 529
M19-MEL = system: M19-MEL
DMS-273 = system: DMS-273
XF498 = system: XF498
RXF 631 = system: RXF 631

`COc1ccccc1/C=C\c1cnnc2ccccc12` was tested, and the GI50 (Hs-578T) was > 10 µM (inactive).
With `O=C(O)CCCc1nc2c(n1Cc1ccccc1)C(=O)c1ccccc1C2=O` the GI50 (Hs-578T) was 75.7 µM (inactive).
`COC1=CC2(CC(OC)=C1OC)OC21COc2ccccc2C1=O` (configuration not stated) was tested, and the GI50 (Hs-578T) was > 100 µM (inactive).
For `CCN(CC)CCNc1ccc2ncn3c4ccccc4c(=O)c1c23`, the GI50 (DLD-1) was 3.5 µM (inactive), the GI50 (HOP-18) was 10 µM (inactive) and the GI50 (KM-20L2) was 3.85 µM (inactive). The GI50 (LXFL 529) was 3.77 µM (inactive) and the GI50 (M19-MEL) was 3.63 µM (inactive).
With `CCOC(=O)c1nnc2c(C(=O)OCC)c3ccccc3n2c1N` the GI50 (Hs-578T) was 7.16 µM (inactive).
With `C=C1c2[nH]c3ccccc3c2C2C(CC)C1CCN2C` (configuration not stated) the GI50 (Hs-578T) was 40.9 µM (inactive).
With `COc1ccc2[nH]c3c([N+](=O)[O-])ccc(Cl)c3c(=O)c2c1` the GI50 (Hs-578T) was 30.3 µM (inactive).
`Cc1cc(-c2nc3cc(F)ccc3s2)ccc1NC(=O)[C@@H](N)CCCCN` was tested, and the GI50 (Hs-578T) was 3.08 µM (inactive).
In the case of `CCSCCC(N)C(=O)O` (configuration not stated), the GI50 (Hs-578T) is reported as > 100 µM (inactive).
`Brc1ccc2c(c1)C1C(CO2)C(c2ccccc2)=NN1c1ccccc1` (configuration not stated) was tested, and the GI50 (DLD-1) was > 100 µM (inactive), the GI50 (DMS-273) was > 100 µM (inactive) and the GI50 (HOP-18) was 60 µM (inactive). The GI50 (KM-20L2) was > 100 µM (inactive), the GI50 (LXFL 529) was > 100 µM (inactive) and the GI50 (M19-MEL) was > 100 µM (inactive). The GI50 (XF498) was > 100 µM (inactive).
`O=C1CCCC(=O)N1n1c(Cc2ccccc2)n[nH]c1=O` was tested, and the GI50 (Hs-578T) was > 100 µM (inactive).
For `COC(=O)C(N)CCCC(N)C(=O)NC(C)C(=O)NC(CCC(=O)NCCNCCNc1c2ccccc2nc2cccc([N+](=O)[O-])c12)C(N)=O` (configuration not stated), the GI50 (Hs-578T) was 17.9 µM (inactive).
With `Cc1ccc(-c2cc(=O)c3cc(C)c(C)c(C(=O)O)c3o2)cc1C` the GI50 (DLD-1) was > 100 µM (inactive), the GI50 (DMS-273) was > 100 µM (inactive) and the GI50 (HOP-18) was > 100 µM (inactive). For the same compound, the GI50 (KM-20L2) was > 100 µM (inactive), the GI50 (LXFL 529) was > 100 µM (inactive) and the GI50 (M19-MEL) was > 100 µM (inactive). The GI50 (RXF 631) was > 100 µM (inactive).
For `CC(=O)c1c(CO[N+](=O)[O-])[n+]([O-])c2ccccc2[n+]1[O-]`, the GI50 (Hs-578T) was 41.1 µM (inactive).
`COc1ccc(/N=N/c2c(C)c(C#N)c(=S)n(C3OC(COC(C)=O)C(OC(C)=O)C(OC(C)=O)C3OC(C)=O)c2C)cc1` (configuration not stated) was tested, and the GI50 (Hs-578T) was 23.3 µM (inactive).
For `COC(=O)[C@H](Cc1ccccc1)NC(=O)OCC1OC(n2cc(C)c(=O)[nH]c2=O)CC1N=[N+]=[N-]` (some centres not stated), the GI50 (Hs-578T) was 0.0617 µM (active).
In the case of `C[C@]12CC[C@H]3[C@@H](CCC4=CC(=O)CC[C@@]43C)[C@@H]1CC[C@@H]2OC(=O)c1cccc2c(=O)c3ccccc3[nH]c12`, the GI50 (Hs-578T) is reported as 12.1 µM (inactive).
With `OCCN(CCO)c1ccc2c(c1)Cc1ccccc1-2` the GI50 (Hs-578T) was 37.1 µM (inactive).
For `COC(=O)CCC(=O)Nc1cc(Cl)ccc1Cl`, the GI50 (DLD-1) was > 100 µM (inactive), the GI50 (HOP-18) was > 100 µM (inactive) and the GI50 (KM-20L2) was > 100 µM (inactive). The GI50 (LXFL 529) was > 100 µM (inactive), the GI50 (M19-MEL) was > 100 µM (inactive) and the GI50 (XF498) was > 100 µM (inactive).
`CC(=NNC(=S)Nc1cccc(C)c1)c1cccc(C(C)=NNC(=S)Nc2cccc(C)c2)n1` was tested, and the GI50 (Hs-578T) was > 100 µM (inactive).
`CC1c2c(Cl)nc3ccccc3c2Oc2c1c(Cl)nc1ccccc21` was tested, and the GI50 (DLD-1) was > 100 µM (inactive), the GI50 (DMS-273) was 53.2 µM (inactive) and the GI50 (HOP-18) was 7.21 µM (inactive). The GI50 (KM-20L2) was > 100 µM (inactive), the GI50 (LXFL 529) was 53.5 µM (inactive) and the GI50 (M19-MEL) was > 100 µM (inactive).
`Cc1ccc(S(=O)(=O)Nn2c(O)c(C#N)c(-c3ccc(Cl)cc3)c(C#N)c2=O)cc1` was tested, and the GI50 (Hs-578T) was 74.3 µM (inactive).
With `CC1(C)CCCCCCC2CC2CCCCCC(C)(C)C1=O` (configuration not stated) the GI50 (Hs-578T) was > 100 µM (inactive).
In the case of `O=C1CNCCCN2CCN(CCCNCC(=O)Nc3ccc(cc3)S(=O)(=O)c3ccc(cc3)NC(=O)CNCCCN3CCN(CCCNCC(=O)Nc4ccc(cc4)S(=O)(=O)c4ccc(cc4)N1)CC3)CC2`, the GI50 (Hs-578T) is reported as > 45.4 µM (inactive).
`C[C@]12CC[C@H](OC3CCCCO3)CC1=CC[C@@H]1C2CC[C@]2(C)/C(=N/O)CCC12` (some centres not stated) was tested, and the GI50 (DLD-1) was 48.2 µM (inactive), the GI50 (DMS-273) was 17.5 µM (inactive) and the GI50 (HOP-18) was 16 µM (inactive). For the same compound, the GI50 (KM-20L2) was 12.6 µM (inactive), the GI50 (LXFL 529) was 16.6 µM (inactive) and the GI50 (XF498) was 40.6 µM (inactive).
`COc1cc2c(c(OC)c1OC)C(=O)[C@@H]1[C@H]2N1C(N)=O` was tested, and the GI50 (Hs-578T) was 96.2 µM (inactive).
In the case of `OC12c3ccccc3C3CCC4(OCCO4)C3C1c1ccccc12` (configuration not stated), the GI50 (DLD-1) is reported as > 100 µM (inactive), the GI50 (DMS-273) is reported as > 100 µM (inactive) and the GI50 (HOP-18) is reported as > 100 µM (inactive). The GI50 (KM-20L2) was > 100 µM (inactive), the GI50 (LXFL 529) was > 100 µM (inactive) and the GI50 (M19-MEL) was > 100 µM (inactive).
`CC(=O)OC12c3ccccc3-c3ccccc3C1C(C(=O)O)C2(Cl)C(=O)O` (configuration not stated) was tested, and the GI50 (Hs-578T) was > 10 µM (inactive).
In the case of `O=C1/C(=C/c2cccc(Br)c2)Cc2ccccc21`, the GI50 (Hs-578T) is reported as 29.4 µM (inactive).
`COc1cc(/C=C/C(=O)OCCc2ccccc2)ccc1O` was tested, and the GI50 (Hs-578T) was 25.6 µM (inactive).
`CC(C)[C@@H](C(=O)N(C)[C@H](C(=O)N1CCC[C@H]1C(=O)OCc1ccccc1)C(C)C)N(C)C(=O)C(Cc1ccccc1)N(C)C(=O)[C@H](NC(=O)OC(C)(C)C)C(C)C` (some centres not stated) (Boc-[dV][ξNMeF][NMeV][NMeV]P-OBn) was tested, and the GI50 (DLD-1) was > 31.6 µM (inactive), the GI50 (DMS-273) was > 31.6 µM (inactive) and the GI50 (HOP-18) was > 72.6 µM (inactive). For the same compound, the GI50 (KM-20L2) was > 31.6 µM (inactive), the GI50 (LXFL 529) was 42.9 µM (inactive) and the GI50 (M19-MEL) was > 31.6 µM (inactive). For the same compound, the GI50 (XF498) was 13.4 µM (inactive).
With `COc1cc2c(cc1-c1coc3cc(O)ccc3c1=O)OCO2` [CUNEATIN] the GI50 (Hs-578T) was 22.2 µM (inactive).
In the case of `O=c1[nH]c2c(O)cccc2c2cc3c(c(O)c12)OCO3` [NARCIPRIMINE], the GI50 (DLD-1) is reported as 14.6 µM (inactive), the GI50 (DMS-273) is reported as 18.7 µM (inactive) and the GI50 (HOP-18) is reported as 0.0524 µM (active). For the same compound, the GI50 (KM-20L2) was 12.8 µM (inactive), the GI50 (LXFL 529) was 18.3 µM (inactive) and the GI50 (M19-MEL) was 20.3 µM (inactive). For the same compound, the GI50 (XF498) was 15.6 µM (inactive).
With `Oc1ccc(C(O)C2CCCCN2)cc1O` (configuration not stated) [RIMITEROL HYDROBROMIDE] the GI50 (Hs-578T) was > 100 µM (inactive).
